Tests used:
Assay type in all cases: physicochemical
[1] = Moisture adsorption-desorption by DVS; conditions: 25 °C
Protocol: The moisture adsorption-desorption properties of sulfate polymorph A obtained according to Example 1 were examined by DVS. 16 mg of sulfate polymorph A was placed in a metal container, which was placed in an Intrinsic DVS apparatus. A cyclic humidity gradient of 40-95-0-40% RH was set at 25 °C, and the samples were subjected to two successive adsorption-desorption cycles. At each stage, the following equilibrium criteria were used: mass change dm/dt < 0.002% over 5 min, with minimum and maximum equilibrium times of 60 min and 360 min, respectively, at each stage. Table 13 Dynamic water adsorption experiments for sulfate polymorph A

[2] = Temperature and humidity stability, open storage (HPLC purity, XRPD crystal form)
Protocol: The sulfate polymorph A obtained in Example 1 was placed openly under conditions of 25°C/92.5% RH, 25°C/60% RH and 40°C/75% RH to test the temperature and humidity stability. After the samples were stored for 1 week and 4 weeks, respectively, the purity of the samples was tested by HPLC, and the crystalline morphology of the samples was detected by XRPD.
The XRPD results of sulfate polymorph A after 1 and 4 weeks of storage at 25°C/92.5% RH, 25°C/60% RH and 40°C/75% RH are shown in Figures 14 and 15. Table 12 Stability assessment of sulfate polymorph A at different temperatures and humidities

[3] = Storage stability of crystals at different temperatures, airtight (HPLC purity, XRPD crystal form)
Protocol: 10 mg polymorph I of compound 1 obtained in Comparative Example 1 and polymorph A of sulfate salt obtained in Example 1 were placed in an airtight environment and stored at 2~8 °C, 25 °C and 60 °C for 1 week and 2 weeks, respectively, and then samples were taken to examine the chemical purity of the samples by HPLC and the crystal morphology of the samples by XRPD. Table 11 Evaluation of storage properties of crystals at different temperatures

[4] = Solubility in buffers and water (HPLC of supernatant)
Protocol: Polymorph I of compound 1 obtained in Comparative Example 1, and sulfate polymorph A obtained in Example 1 were weighed in a sample vial, to which 1 mL of hydrochloric acid buffer solution at pH=1.2, acetate buffer solution at pH=4.5, phosphate buffer solution at pH=6.8, and water were added, respectively. The suspension was magnetically stirred at 25°C (1000 r/min).

[5] = 25°C/60%RH for four weeks, open
[6] = 25°C/92.5% RH for four weeks, open
[7] = 25°C/92.5% RH for one week, open
[8] = 40°C/75% RH for four weeks, open
[9] = acetate buffer solution pH 4.5, 25°C, 24 h
[10] = hydrochloric acid buffer solution pH 1.2, 25°C, 24 h
[11] = phosphate buffer solution pH 6.8, 25°C, 24 h

Cc1c2c(c(=O)n3c1C(=O)NC31CCCCC1)Nc1cc(NC(=O)C3CC3)ncc1C2 [Sulfate polymorph A]
hygroscopicity ([1]; 0%RH-95%RH): slightly hygroscopic | moisture absorbed ([1]; range 0%RH-95%RH): 1.2% | 1st Desorption Mass change (%) ([1]; Relative humidity 0 %): -0.574% | 2nd Adsorption Mass change (%) ([1]; Relative humidity 0 %): -0.574% | 1st Desorption Mass change (%) ([1]; Relative humidity 10 %): -0.344% | 2nd Adsorption Mass change (%) ([1]; Relative humidity 10 %): -0.368% | 1st Desorption Mass change (%) ([1]; Relative humidity 20 %): -0.210% | 2nd Adsorption Mass change (%) ([1]; Relative humidity 20 %): -0.246% | 1st Desorption Mass change (%) ([1]; Relative humidity 30 %): -0.084% | 2nd Adsorption Mass change (%) ([1]; Relative humidity 30 %): -0.133% | 1st Adsorption Mass change (%) ([1]; Relative humidity 40 %): 0.000% | 1st Desorption Mass change (%) ([1]; Relative humidity 40 %): 0.081% | 2nd Adsorption Mass change (%) ([1]; Relative humidity 40 %): -0.017% | 1st Adsorption Mass change (%) ([1]; Relative humidity 50 %): 0.085% | 1st Desorption Mass change (%) ([1]; Relative humidity 50 %): 0.178% | 1st Adsorption Mass change (%) ([1]; Relative humidity 60 %): 0.174% | 1st Desorption Mass change (%) ([1]; Relative humidity 60 %): 0.253% | 1st Adsorption Mass change (%) ([1]; Relative humidity 70 %): 0.260% | 1st Desorption Mass change (%) ([1]; Relative humidity 70 %): 0.327% | 1st Adsorption Mass change (%) ([1]; Relative humidity 80 %): 0.357% | 1st Desorption Mass change (%) ([1]; Relative humidity 80 %): 0.418% | 1st Adsorption Mass change (%) ([1]; Relative humidity 90 %): 0.497% | 1st Desorption Mass change (%) ([1]; Relative humidity 90 %): 0.589% | 1st Adsorption Mass change (%) ([1]; Relative humidity 95 %): 0.604% | 1st Desorption Mass change (%) ([1]; Relative humidity 95 %): 0.604% | Aromatic content (%) ([2]; 25°C/60% RH for one week, open): 1.0% | Purity (%) ([2]; 25°C/60% RH for one week, open): 98.1% | Aromatic content (%) [2, 5]: 1.0% | Purity (%) [2, 5]: 98.1% | Aromatic content (%) [2, 6]: 1.2% | Purity (%) [2, 6]: 97.8% | Aromatic content (%) [2, 7]: 1.0% | Purity (%) [2, 7]: 98.1% | Aromatic content (%) [2, 8]: 1.1% | Purity (%) [2, 8]: 97.9% | Aromatic content (%) ([2]; 40°C/75% RH for one week, open): 1.0% | Purity (%) ([2]; 40°C/75% RH for one week, open): 98.1% | Aromatic content (%) ([2]; Initial): 1.0% | Purity (%) ([2]; Initial): 98.1% | structural stability (purity and XRPD) on storage ([2]; different humidity and temperature conditions, 1 and 4 weeks): high structural stability | crystal structure (XRPD) after storage ([3]; 1 week and 2 weeks at 2~8 °C, 25 °C and 60 °C): did not undergo significant changes | Purity (%) ([3]; Initial): 97.5% | the amount of aromatic hydrocarbons (%) ([3]; Initial): 1.5% | Purity (%) ([3]; One week, 2~8 °C, airtight): 97.5% | the amount of aromatic hydrocarbons (%) ([3]; One week, 2~8 °C, airtight): 1.5% | Purity (%) ([3]; One week, 25 °C, airtight): 97.4% | the amount of aromatic hydrocarbons (%) ([3]; One week, 25 °C, airtight): 1.5% | Purity (%) ([3]; One week, 60 °C, airtight): 97.3% | the amount of aromatic hydrocarbons (%) ([3]; One week, 60 °C, airtight): 1.7% | Purity (%) ([3]; Two weeks, 2~8 °C, airtight): 97.5% | the amount of aromatic hydrocarbons (%) ([3]; Two weeks, 2~8 °C, airtight): 1.5% | Purity (%) ([3]; Two weeks, 25 °C, airtight): 97.5% | the amount of aromatic hydrocarbons (%) ([3]; Two weeks, 25 °C, airtight): 1.5% | Purity (%) ([3]; Two weeks, 60 °C, airtight): 97.1% | the amount of aromatic hydrocarbons (%) ([3]; Two weeks, 60 °C, airtight): 1.8% | solubility at 24 h ([4]; acetate buffer solution pH 4.5, 25°C): 58.6 µg/mL | pH of the solution after solvation saturation has been reached [4, 9]: 2.0 | solubility at 24 h ([4]; hydrochloric acid buffer solution pH 1.2, 25°C): 22.5 µg/mL | pH of the solution after solvation saturation has been reached [4, 10]: 1.2 | solubility at 24 h ([4]; phosphate buffer solution pH 6.8, 25°C): 21.6 µg/mL | pH of the solution after solvation saturation has been reached [4, 11]: 2.0 | solubility at 24 h ([4]; water, 25°C): 64.7 µg/mL | pH of the solution after solvation saturation has been reached ([4]; water, 25°C, 24 h): 1.5

N-(12'-methyl-1',5'-dioxo-1',5',6 ',11'-tetrahydro-2'H-spiro[cyclohexane-1,3'-imidazo[1,5':1,6]pyrido[3,4-b][ 1,6]naphthyridin]-8'-yl)cyclopropane carboxamide [polymorph I of Compound 1]
crystal structure (XRPD) after storage ([3]; 2 weeks at high temperature (60 °C)): the crystal structure changed | crystal structure (XRPD) after storage ([3]; 2 weeks at low temperature (2-8 °C) or room temperature (25 °C)): did not change significantly | Purity (%) ([3]; Initial): 97.4% | the amount of aromatic hydrocarbons (%) ([3]; Initial): 1.6% | Purity (%) ([3]; One week, 2~8 °C, airtight): 97.6% | the amount of aromatic hydrocarbons (%) ([3]; One week, 2~8 °C, airtight): 1.4% | Purity (%) ([3]; One week, 25 °C, airtight): 97.6% | the amount of aromatic hydrocarbons (%) ([3]; One week, 25 °C, airtight): 1.4% | Purity (%) ([3]; One week, 60 °C, airtight): 96.6% | the amount of aromatic hydrocarbons (%) ([3]; One week, 60 °C, airtight): 2.4% | Purity (%) ([3]; Two weeks, 2~8 °C, airtight): 97.5% | the amount of aromatic hydrocarbons (%) ([3]; Two weeks, 2~8 °C, airtight): 1.5% | Purity (%) ([3]; Two weeks, 25 °C, airtight): 97.4% | the amount of aromatic hydrocarbons (%) ([3]; Two weeks, 25 °C, airtight): 1.6% | Purity (%) ([3]; Two weeks, 60 °C, airtight): 96.3% | the amount of aromatic hydrocarbons (%) ([3]; Two weeks, 60 °C, airtight): 2.7% | Solubility (μg/mL) [4, 9]: Not detected | pH of the solution after solvation saturation has been reached [4, 9]: 3.5 | Solubility [4, 10]: 18.7 µg/mL | pH of the solution after solvation saturation has been reached [4, 10]: 1.0 | Solubility (μg/mL) [4, 11]: Not detected | pH of the solution after solvation saturation has been reached [4, 11]: 6.4 | Solubility (μg/mL) ([4]; water, 25°C, 24 h): Not detected | pH of the solution after solvation saturation has been reached ([4]; water, 25°C, 24 h): 6.4
